What was measured:
filamentous fungi = assay: Anti-microbial activity in vitro (filamentous fungi); type: cell-based; conditions: concentration of 500 µg/mℓ
Solubility to solvent = type: physicochemical
yeast = assay: Anti-microbial activity in vitro (yeast); type: cell-based; conditions: concentration of 500 µg/mℓ
bacteria = assay: Anti-microbial activity in vitro (bacteria); type: cell-based; conditions: concentration of 500 µg/mℓ
[1] = Acute toxicity in mice (intraperitoneal); conditions: mouse, in vivo, ip; JCL/ICR male mice, 5 weeks; administration into the peritoneal cavity; mortality after two weeks; read-out: LD₅₀

CC1=C(C(=O)O)COC1=O [F-0368]
anti-microbial activity in vitro (filamentous fungi): did not indicate its anti-microbial activity
Solubility to Solvent (Solubility to solvent; acetone): Readily soluble
Solubility to Solvent (Solubility to solvent; benzene): Non-soluble
Solubility to Solvent (Solubility to solvent; chloroform): Non-soluble
Solubility to Solvent (Solubility to solvent; ethanol): Readily soluble
Solubility to Solvent (Solubility to solvent; ethyl acetate): Soluble
Solubility to Solvent (Solubility to solvent; hexane): Non-soluble
Solubility to Solvent (Solubility to solvent; methanol): Readily soluble
Solubility to Solvent (Solubility to solvent; water): Soluble
anti-microbial activity in vitro (yeast): did not indicate its anti-microbial activity
anti-microbial activity in vitro (bacteria): did not indicate its anti-microbial activity
LD50 at 336 h [1]: ~200 mg/kg

Reference: patent EP0332216A1 (priority 1988, dated 1989)
